Data taken from the NIST ThermoML archive (doi:10.1021/je400839x).
± gives the expanded uncertainty stated by the source.

Experiments:
[1] = for viscosity / speed of sound / mass density: 101 kPa, Liquid; for viscosity: Concentric cylinders viscometry; for speed of sound: Pulse-echo method; for mass density: Vibrating tube method
[2] = xn = mol fraction of the nth substance listed; conditions: 101 kPa, Liquid, x2 = 0; for viscosity: Concentric cylinders viscometry; for mass density: Vibrating tube method

SMILES: CC(CC(C)(C)C)CC(C)(C)C [2,2,4,6,6-pentamethylheptane]
- viscosity ([1]; 293.15 K): 1.29 ± 0.02 mPa·s
- speed of sound ([1]; 293.15 K): 1204 ± 2.2 m/s
- mass density ([1]; 293.15 K): 745.5 ± 0.6 kg/m3
- surface tension liquid-gas ([1]; 294 K, Pendant drop shape): 21.8 ± 0.4 mN/m
- viscosity ([1]; 303.15 K): 1.1 ± 0.01 mPa·s
- speed of sound ([1]; 303.15 K): 1164.9 ± 2.2 m/s
- mass density ([1]; 303.15 K): 738.2 ± 0.6 kg/m3
- viscosity ([1]; 313.15 K): 0.941 ± 0.012 mPa·s
- speed of sound ([1]; 313.15 K): 1126.7 ± 2.2 m/s
- mass density ([1]; 313.15 K): 730.9 ± 0.6 kg/m3
- viscosity ([1]; 323.15 K): 0.827 ± 0.011 mPa·s
- speed of sound ([1]; 323.15 K): 1089.3 ± 2.2 m/s
- mass density ([1]; 323.15 K): 723.5 ± 0.6 kg/m3
- viscosity ([1]; 333.15 K): 0.726 ± 0.01 mPa·s
- mass density ([1]; 333.15 K): 716.1 ± 0.6 kg/m3
- viscosity ([1]; 343.15 K): 0.643 ± 0.01 mPa·s
- mass density ([1]; 343.15 K): 708.6 ± 0.6 kg/m3
- viscosity ([1]; 353.15 K): 0.573 ± 0.009 mPa·s
- mass density ([1]; 353.15 K): 700.9 ± 0.5 kg/m3
- viscosity ([1]; 363.15 K): 0.515 ± 0.009 mPa·s
- mass density ([1]; 363.15 K): 693.2 ± 0.5 kg/m3
- viscosity ([1]; 373.15 K): 0.467 ± 0.008 mPa·s
- mass density ([1]; 373.15 K): 685.5 ± 0.5 kg/m3

SMILES: CCCCCCCCCCCCCCCC [hexadecane]
- viscosity ([1]; 293.15 K): 3.44 ± 0.02 mPa·s
- mass density ([1]; 293.15 K): 773.7 ± 0.3 kg/m3
- viscosity ([1]; 303.15 K): 2.72 ± 0.02 mPa·s
- mass density ([1]; 303.15 K): 766.8 ± 0.3 kg/m3
- viscosity ([1]; 313.15 K): 2.21 ± 0.02 mPa·s
- mass density ([1]; 313.15 K): 759.9 ± 0.3 kg/m3
- viscosity ([1]; 323.15 K): 1.82 ± 0.01 mPa·s
- mass density ([1]; 323.15 K): 752.9 ± 0.3 kg/m3
- viscosity ([1]; 333.15 K): 1.53 ± 0.01 mPa·s
- mass density ([1]; 333.15 K): 746 ± 0.3 kg/m3
- viscosity ([1]; 343.15 K): 1.31 ± 0.01 mPa·s
- mass density ([1]; 343.15 K): 739 ± 0.3 kg/m3
- viscosity ([1]; 353.15 K): 1.13 ± 0.01 mPa·s
- mass density ([1]; 353.15 K): 731.9 ± 0.3 kg/m3
- viscosity ([1]; 363.15 K): 0.99 ± 0.009 mPa·s
- mass density ([1]; 363.15 K): 724.8 ± 0.3 kg/m3
- viscosity ([1]; 373.15 K): 0.876 ± 0.009 mPa·s
- mass density ([1]; 373.15 K): 717.7 ± 0.3 kg/m3

SMILES: CCCCCCCCCCCCCCCC [hexadecane] + CC(CC(C)(C)C)CC(C)(C)C
- viscosity ([2]; 293.15 K): 3.44 ± 0.02 mPa·s
- mass density ([2]; 293.15 K): 773.7 ± 0.3 kg/m3
- viscosity ([2]; 303.15 K): 2.72 ± 0.02 mPa·s
- mass density ([2]; 303.15 K): 766.8 ± 0.3 kg/m3
- viscosity ([2]; 313.15 K): 2.21 ± 0.02 mPa·s
- mass density ([2]; 313.15 K): 759.9 ± 0.3 kg/m3
- viscosity ([2]; 323.15 K): 1.82 ± 0.01 mPa·s
- mass density ([2]; 323.15 K): 752.9 ± 0.3 kg/m3
- viscosity ([2]; 333.15 K): 1.53 ± 0.01 mPa·s
- mass density ([2]; 333.15 K): 746 ± 0.3 kg/m3
- viscosity ([2]; 343.15 K): 1.31 ± 0.01 mPa·s
- mass density ([2]; 343.15 K): 739 ± 0.3 kg/m3
- viscosity ([2]; 353.15 K): 1.13 ± 0.01 mPa·s
- mass density ([2]; 353.15 K): 731.9 ± 0.3 kg/m3
- viscosity ([2]; 363.15 K): 0.99 ± 0.009 mPa·s
- mass density ([2]; 363.15 K): 724.8 ± 0.3 kg/m3
- viscosity ([2]; 373.15 K): 0.876 ± 0.009 mPa·s
- mass density ([2]; 373.15 K): 717.7 ± 0.3 kg/m3
